Reference: PubChem BioAssay (NCI)
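Values below derive from 48-hour exposures of cells grown in 96-well plates, with endpoints linearly interpolated between the two concentrations bracketing the appropriate inhibition level. GI50 marks 50% less growth. At the TGI there is no net growth.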

What was measured:
Assay in all cases: growth of human tumour cells (NCI), 48 h
786-0 renal = system: 786-0 renal
A498 renal = system: A498 renal
A549 NSCLC = system: A549 NSCLC
ACHN renal = system: ACHN renal
BT-549 breast = system: BT-549 breast
CAKI-1 renal = system: CAKI-1 renal
CCRF-CEM leukemia = system: CCRF-CEM leukemia
COLO 205 colon = system: COLO 205 colon
DU-145 prostate = system: DU-145 prostate
EKVX NSCLC = system: EKVX NSCLC
HCC-2998 colon = system: HCC-2998 colon
HCT-116 colon = system: HCT-116 colon
HCT-15 colon = system: HCT-15 colon
HL-60(TB) leukemia = system: HL-60(TB) leukemia
HOP-62 NSCLC = system: HOP-62 NSCLC
HOP-92 NSCLC = system: HOP-92 NSCLC
HS 578T breast = system: HS 578T breast
HT29 colon = system: HT29 colon
IGROV1 ovarian = system: IGROV1 ovarian
K-562 leukemia = system: K-562 leukemia
KM12 colon = system: KM12 colon
LOX IMVI melanoma = system: LOX IMVI melanoma
M14 melanoma = system: M14 melanoma
MALME-3M melanoma = system: MALME-3M melanoma
MCF7 breast = system: MCF7 breast
MDA-MB-231 breast = system: MDA-MB-231 breast
MDA-MB-435 = system: MDA-MB-435
MOLT-4 leukemia = system: MOLT-4 leukemia
NCI-H226 lung = system: NCI-H226 lung
NCI-H23 lung = system: NCI-H23 lung
NCI-H460 lung = system: NCI-H460 lung
NCI-H522 lung = system: NCI-H522 lung
NCI/ADR-RES ovarian = system: NCI/ADR-RES ovarian
OVCAR-3 ovarian = system: OVCAR-3 ovarian
OVCAR-4 ovarian = system: OVCAR-4 ovarian
OVCAR-5 ovarian = system: OVCAR-5 ovarian
OVCAR-8 ovarian = system: OVCAR-8 ovarian
PC-3 prostate = system: PC-3 prostate
RPMI-8226 leukemia = system: RPMI-8226 leukemia
RXF 393 renal = system: RXF 393 renal
SF-268 CNS = system: SF-268 CNS
SF-295 CNS = system: SF-295 CNS
SF-539 CNS = system: SF-539 CNS
SK-MEL-2 melanoma = system: SK-MEL-2 melanoma
SK-MEL-28 melanoma = system: SK-MEL-28 melanoma
SK-MEL-5 melanoma = system: SK-MEL-5 melanoma
SK-OV-3 ovarian = system: SK-OV-3 ovarian
SN12C renal = system: SN12C renal
SNB-19 CNS = system: SNB-19 CNS
SNB-75 CNS = system: SNB-75 CNS
SR leukemia = system: SR leukemia
SW-620 colon = system: SW-620 colon
T-47D breast = system: T-47D breast
TK-10 renal = system: TK-10 renal
U251 CNS = system: U251 CNS
UACC-257 melanoma = system: UACC-257 melanoma
UACC-62 melanoma = system: UACC-62 melanoma
UO-31 renal = system: UO-31 renal

SMILES: Nc1ncc(-c2ccc3ncnc(N4CCc5cc(F)c(Cl)cc54)c3c2)cc1CO
- GI50 (786-0 renal): 474 nM
- TGI (786-0 renal): 5000 nM
- GI50 (A498 renal): 110 nM
- TGI (A498 renal): 611 nM
- GI50 (A549 NSCLC): 522 nM
- TGI (A549 NSCLC): 3210 nM
- GI50 (ACHN renal): 365 nM
- TGI (ACHN renal): 20500 nM
- GI50 (BT-549 breast): 321 nM
- TGI (BT-549 breast): 2050 nM
- GI50 (CAKI-1 renal): 282 nM
- TGI (CAKI-1 renal): 3760 nM
- GI50 (CCRF-CEM leukemia): 1580 nM
- TGI (CCRF-CEM leukemia): 11200 nM
- GI50 (COLO 205 colon): 1170 nM
- TGI (COLO 205 colon): 2820 nM
- GI50 (DU-145 prostate): 619 nM
- TGI (DU-145 prostate): > 41800 nM
- GI50 (EKVX NSCLC): 259 nM
- TGI (EKVX NSCLC): 1930 nM
- GI50 (HCC-2998 colon): 1200 nM
- TGI (HCC-2998 colon): 5120 nM
- GI50 (HCT-116 colon): 1260 nM
- TGI (HCT-116 colon): 5020 nM
- GI50 (HCT-15 colon): 798 nM
- TGI (HCT-15 colon): 5250 nM
- GI50 (HL-60(TB) leukemia): 1070 nM
- TGI (HL-60(TB) leukemia): 4500 nM
- GI50 (HOP-62 NSCLC): 776 nM
- TGI (HOP-62 NSCLC): 5120 nM
- GI50 (HOP-92 NSCLC): 115 nM
- TGI (HOP-92 NSCLC): 1530 nM
- GI50 (HS 578T breast): 404 nM
- TGI (HS 578T breast): 2940 nM
- GI50 (HT29 colon): 950 nM
- TGI (HT29 colon): 10200 nM
- GI50 (IGROV1 ovarian): 178 nM
- TGI (IGROV1 ovarian): 724 nM
- GI50 (K-562 leukemia): 887 nM
- TGI (K-562 leukemia): > 23200 nM
- GI50 (KM12 colon): 1650 nM
- TGI (KM12 colon): 8230 nM
- GI50 (LOX IMVI melanoma): 747 nM
- TGI (LOX IMVI melanoma): 3940 nM
- GI50 (M14 melanoma): 543 nM
- TGI (M14 melanoma): 3900 nM
- GI50 (MALME-3M melanoma): 186 nM
- TGI (MALME-3M melanoma): 1420 nM
- GI50 (MCF7 breast): 210 nM
- TGI (MCF7 breast): 2520 nM
- GI50 (MDA-MB-231 breast): 697 nM
- TGI (MDA-MB-231 breast): 6540 nM
- GI50 (MDA-MB-435): 418 nM
- TGI (MDA-MB-435): 1990 nM
- GI50 (MOLT-4 leukemia): 525 nM
- TGI (MOLT-4 leukemia): 4720 nM
- GI50 (NCI-H226 lung): 570 nM
- TGI (NCI-H226 lung): 9140 nM
- GI50 (NCI-H23 lung): 803 nM
- TGI (NCI-H23 lung): 3720 nM
- GI50 (NCI-H460 lung): 413 nM
- TGI (NCI-H460 lung): 3560 nM
- GI50 (NCI-H522 lung): 419 nM
- TGI (NCI-H522 lung): 3020 nM
- GI50 (NCI/ADR-RES ovarian): 1660 nM
- TGI (NCI/ADR-RES ovarian): 9100 nM
- GI50 (OVCAR-3 ovarian): 468 nM
- TGI (OVCAR-3 ovarian): 4840 nM
- GI50 (OVCAR-4 ovarian): 615 nM
- TGI (OVCAR-4 ovarian): 5230 nM
- GI50 (OVCAR-5 ovarian): 422 nM
- TGI (OVCAR-5 ovarian): 12100 nM
- GI50 (OVCAR-8 ovarian): 883 nM
- TGI (OVCAR-8 ovarian): 10400 nM
- GI50 (PC-3 prostate): 343 nM
- TGI (PC-3 prostate): 25100 nM
- GI50 (RPMI-8226 leukemia): 395 nM
- TGI (RPMI-8226 leukemia): 3720 nM
- GI50 (RXF 393 renal): 318 nM
- TGI (RXF 393 renal): 1170 nM
- GI50 (SF-268 CNS): 663 nM
- TGI (SF-268 CNS): 7890 nM
- GI50 (SF-295 CNS): 453 nM
- TGI (SF-295 CNS): 3170 nM
- GI50 (SF-539 CNS): 1270 nM
- TGI (SF-539 CNS): 4450 nM
- GI50 (SK-MEL-2 melanoma): 1090 nM
- TGI (SK-MEL-2 melanoma): 2890 nM
- GI50 (SK-MEL-28 melanoma): 393 nM
- TGI (SK-MEL-28 melanoma): 5210 nM
- GI50 (SK-MEL-5 melanoma): 838 nM
- TGI (SK-MEL-5 melanoma): 2200 nM
- GI50 (SK-OV-3 ovarian): 451 nM
- TGI (SK-OV-3 ovarian): 2820 nM
- GI50 (SN12C renal): 435 nM
- TGI (SN12C renal): 11200 nM
- GI50 (SNB-19 CNS): 1430 nM
- TGI (SNB-19 CNS): 12900 nM
- GI50 (SNB-75 CNS): 50.6 nM
- TGI (SNB-75 CNS): 1110 nM
- GI50 (SR leukemia): 475 nM
- TGI (SR leukemia): 4660 nM
- GI50 (SW-620 colon): 1640 nM
- TGI (SW-620 colon): 9480 nM
- GI50 (T-47D breast): 169 nM
- TGI (T-47D breast): 936 nM
- GI50 (TK-10 renal): 231 nM
- TGI (TK-10 renal): 2030 nM
- GI50 (U251 CNS): 1430 nM
- TGI (U251 CNS): 7950 nM
- GI50 (UACC-257 melanoma): 644 nM
- TGI (UACC-257 melanoma): 4310 nM
- GI50 (UACC-62 melanoma): 266 nM
- TGI (UACC-62 melanoma): 1610 nM
- GI50 (UO-31 renal): 154 nM
- TGI (UO-31 renal): 5000 nM
